# Measured values as given in article PMC4046888 (Cancer cell, 2011).
# Like-named read-outs stand apart in the source and are kept apart here.
# Assays:
# EHMT2 = EHMT2 (Homo sapiens, UniProt Q96KQ7); assay: Histone methyltransferase panel IC50, balanced conditions
# Solubility = format: physicochemical
# normal C57BL/6 mice = assay: Hematologic analysis and tolerability in normal mice; format: in vivo, mouse; settings: pump 150 mg/ml, 14 days
# [1] = system: H3K79me2 levels in MV4-11 cells; assay: Immunoblot of extracted histones for H3K79me2; format: cell-based, human
# MV4-11 cells = assay: Flow cytometry for DNA content and Annexin V; format: cell-based, human; settings: 3 μM
# MV4-11 cells (MLL-AF4) = assay: Cell proliferation, viable cell count; format: cell-based, human
# [2] = system: MV4-11 cells injected into tail vein of NSG mice; assay: Disseminated MV4-11 leukemia model, survival; format: in vivo, mouse
# [3] = system: Kasumi-1 cells (nonrearranged); assay: Cell proliferation, viable cell count; format: cell-based; settings: Homo sapiens, Kasumi 1, 336 h, read-out: IC50 inhibition of cell proliferation
# [4] = target: EZH1 (in the context of the PRC2 multiprotein complex) (Homo sapiens, UniProt Q92800); assay: Histone methyltransferase panel IC50, balanced conditions
# RS4;11 cells (MLL-AF4) = assay: Cell proliferation, viable cell count; format: cell-based; settings: Homo sapiens, RS4-11, 336 h, read-out: IC50 inhibition of cell proliferation
# [5] = system: HL-60 cells (nonrearranged); assay: Cell proliferation, viable cell count; format: cell-based; settings: Homo sapiens, HL-60, 336 h, read-out: IC50 inhibition of cell proliferation
# [6] = system: hematopoietic progenitors transformed by coexpression of HoxA9 and Meis1a; assay: Proliferation of transformed hematopoietic progenitors; format: cell-based, murine; settings: concentrations of up to 30 μM
# [7] = system: CD14 expression in MOLM-13 cells; assay: Flow cytometry for cell surface CD14; format: cell-based, human; settings: 3 μM, 12 days
# [8] = system: histone methyl marks in MV4-11 cells; assay: Immunoblot with panel of methyl-lysine and methyl-arginine specific antibodies; format: cell-based, human; settings: 10 μM
# [9] = system: 697 cells (nonrearranged); assay: Cell proliferation, viable cell count; format: cell-based; settings: Homo sapiens, 336 h, read-out: IC50 inhibition of cell proliferation
# [10] = system: H3K79me2 levels in MOLM-13 cells; assay: Immunoblot of extracted histones for H3K79me2; format: cell-based, human; settings: 4 days, increasing concentrations
# [11] = Plasma concentration by LC-MS/MS, mini-osmotic pump infusion; format: in vivo, mouse; settings: for average steady-state plasma concentration: pilot PK
# [12] = system: REH cells (nonrearranged); assay: Cell proliferation, viable cell count; format: cell-based; settings: Homo sapiens, 336 h, read-out: IC50 inhibition of cell proliferation
# KOPN-8 cells (MLL-ENL) = assay: Cell proliferation, viable cell count; format: cell-based; settings: Homo sapiens, KOPN-8, 336 h, read-out: IC50 inhibition of cell proliferation
# WHSC1 = WHSC1 (Homo sapiens, UniProt O96028); assay: Histone methyltransferase panel IC50, balanced conditions
# [13] = system: H3K79me2 in Hoxa9-Meis1a transformed hematopoietic progenitors; assay: Immunoblot for H3K79me2 in transformed progenitors; format: cell-based, murine; settings: 10 days
# [14] = system: HOXA9 and MEIS1 transcript levels in MV4-11 cells; assay: Quantitative real-time PCR, concentration response; settings: Homo sapiens, MV4-11, 144 h
# [15] = system: H3K79me2 levels in Jurkat cells; assay: Immunoblot of extracted histones for H3K79me2; format: cell-based, human; settings: 4 days, increasing concentrations
# MOLM-13 cells (MLL-AF9) = assay: Cell proliferation, viable cell count; format: cell-based, human
# [16] = system: U937 cells (nonrearranged); assay: Cell proliferation, viable cell count; format: cell-based; settings: Homo sapiens, U-937, 336 h, read-out: IC50 inhibition of cell proliferation
# SETD7 = SETD7 (Homo sapiens, UniProt Q8WTS6); assay: Histone methyltransferase panel IC50, balanced conditions
# SEM cells (MLL-AF4) = assay: Cell proliferation, viable cell count; format: cell-based; settings: Homo sapiens, 336 h, read-out: IC50 inhibition of cell proliferation
# PRMT1 = PRMT1 (Homo sapiens, UniProt Q99873); assay: Histone methyltransferase panel IC50, balanced conditions
# [17] = system: HOXA9 and MEIS1 transcript levels in MOLM-13 cells; assay: Quantitative real-time PCR, concentration response; settings: Homo sapiens, MOLM-13, 144 h
# [18] = target: EZH2 (in the context of the PRC2 multiprotein complex) (Homo sapiens, UniProt Q15910); assay: Histone methyltransferase panel IC50, balanced conditions
# CARM1 = CARM1 (Homo sapiens, UniProt Q86X55); assay: as above
# [19] = system: Jurkat cells (nonrearranged); assay: Cell proliferation, viable cell count; format: cell-based, human
# PRMT5 = PRMT5 (Homo sapiens, UniProt O14744); assay: Histone methyltransferase panel IC50, balanced conditions
# [20] = system: HOXA9, MEIS1 and TBP mRNA in MV4-11 and MOLM-13 cells; assay: Quantitative real-time PCR, time course at 3 μM; format: cell-based, human
# [21] = system: H3K79me2 in MLL-AF9 transformed hematopoietic progenitors; assay: Immunoblot for H3K79me2 in transformed progenitors; format: cell-based, murine; settings: 10 days
# [22] = system: primary murine hematopoietic progenitors transformed by MLL-AF9; assay: Proliferation of transformed hematopoietic progenitors; format: cell-based; settings: 10 days treatment, MTT at day 12
# PRMT8 = PRMT8 (Homo sapiens, UniProt Q9NR22); assay: Histone methyltransferase panel IC50, balanced conditions
# [23] = read-out: IC50 decrease of HOXA9 transcript
# [24] = read-out: IC50 decrease of MEIS1 transcript
# Sequence of PRMT5 (O14744 whole entry): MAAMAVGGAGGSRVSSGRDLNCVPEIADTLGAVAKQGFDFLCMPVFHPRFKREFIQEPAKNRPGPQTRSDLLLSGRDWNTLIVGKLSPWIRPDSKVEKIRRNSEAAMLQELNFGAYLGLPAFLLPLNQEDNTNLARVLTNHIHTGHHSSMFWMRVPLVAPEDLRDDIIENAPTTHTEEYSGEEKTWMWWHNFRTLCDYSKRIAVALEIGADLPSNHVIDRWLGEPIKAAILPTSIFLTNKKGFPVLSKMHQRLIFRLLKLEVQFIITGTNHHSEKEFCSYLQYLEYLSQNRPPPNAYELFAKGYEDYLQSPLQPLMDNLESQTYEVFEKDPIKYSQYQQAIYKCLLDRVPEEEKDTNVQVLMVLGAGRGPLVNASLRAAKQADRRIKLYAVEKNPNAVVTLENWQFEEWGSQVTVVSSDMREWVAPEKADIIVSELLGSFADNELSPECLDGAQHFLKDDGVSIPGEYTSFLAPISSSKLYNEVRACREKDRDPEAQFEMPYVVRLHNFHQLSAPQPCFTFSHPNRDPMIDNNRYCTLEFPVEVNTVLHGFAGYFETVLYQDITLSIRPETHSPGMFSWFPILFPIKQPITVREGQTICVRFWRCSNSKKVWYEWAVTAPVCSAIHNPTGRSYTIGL
# Sequence of PRMT5 (Q9BQA1 whole entry partner): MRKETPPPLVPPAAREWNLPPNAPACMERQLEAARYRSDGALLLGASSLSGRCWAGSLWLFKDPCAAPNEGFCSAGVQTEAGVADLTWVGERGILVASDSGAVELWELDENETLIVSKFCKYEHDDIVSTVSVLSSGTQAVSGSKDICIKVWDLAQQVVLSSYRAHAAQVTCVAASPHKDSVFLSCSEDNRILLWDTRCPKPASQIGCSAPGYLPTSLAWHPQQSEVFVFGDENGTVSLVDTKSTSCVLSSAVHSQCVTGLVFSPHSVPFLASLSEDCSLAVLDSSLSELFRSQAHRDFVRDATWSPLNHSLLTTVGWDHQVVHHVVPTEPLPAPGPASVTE
# Sequence of PRMT1 (Q99873 whole entry): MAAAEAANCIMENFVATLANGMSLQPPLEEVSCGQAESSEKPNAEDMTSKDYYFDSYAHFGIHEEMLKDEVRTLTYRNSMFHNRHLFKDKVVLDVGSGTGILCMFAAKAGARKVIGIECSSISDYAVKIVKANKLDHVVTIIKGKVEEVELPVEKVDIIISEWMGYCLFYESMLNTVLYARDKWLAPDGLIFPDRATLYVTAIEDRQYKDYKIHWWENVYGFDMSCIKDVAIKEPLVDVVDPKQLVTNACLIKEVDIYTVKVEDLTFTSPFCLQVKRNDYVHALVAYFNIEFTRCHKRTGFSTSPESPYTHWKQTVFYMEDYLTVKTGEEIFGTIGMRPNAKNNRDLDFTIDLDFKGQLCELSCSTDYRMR
# Sequence of EZH1 (in the context of the PRC2 multiprotein complex) (Q92800 whole entry): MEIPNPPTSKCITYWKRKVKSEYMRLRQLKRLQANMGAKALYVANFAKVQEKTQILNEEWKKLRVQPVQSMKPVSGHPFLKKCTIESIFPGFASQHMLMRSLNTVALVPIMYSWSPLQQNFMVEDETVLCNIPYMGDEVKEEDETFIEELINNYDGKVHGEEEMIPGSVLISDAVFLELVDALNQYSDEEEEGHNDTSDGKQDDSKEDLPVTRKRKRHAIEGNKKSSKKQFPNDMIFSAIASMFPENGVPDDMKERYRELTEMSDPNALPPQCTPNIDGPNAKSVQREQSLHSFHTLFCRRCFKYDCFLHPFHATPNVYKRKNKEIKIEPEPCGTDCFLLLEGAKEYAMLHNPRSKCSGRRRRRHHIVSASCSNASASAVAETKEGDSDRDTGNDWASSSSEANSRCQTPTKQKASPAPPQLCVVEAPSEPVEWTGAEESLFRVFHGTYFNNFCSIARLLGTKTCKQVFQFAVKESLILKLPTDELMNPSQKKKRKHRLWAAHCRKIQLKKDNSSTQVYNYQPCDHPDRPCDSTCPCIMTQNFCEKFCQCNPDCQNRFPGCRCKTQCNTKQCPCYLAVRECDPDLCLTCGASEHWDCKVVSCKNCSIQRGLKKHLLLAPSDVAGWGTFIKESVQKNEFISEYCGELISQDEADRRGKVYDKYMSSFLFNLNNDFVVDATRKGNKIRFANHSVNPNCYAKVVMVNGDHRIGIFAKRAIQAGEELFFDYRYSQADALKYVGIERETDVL
# Sequence of EZH1 (in the context of the PRC2 multiprotein complex) (O75530 whole entry partner): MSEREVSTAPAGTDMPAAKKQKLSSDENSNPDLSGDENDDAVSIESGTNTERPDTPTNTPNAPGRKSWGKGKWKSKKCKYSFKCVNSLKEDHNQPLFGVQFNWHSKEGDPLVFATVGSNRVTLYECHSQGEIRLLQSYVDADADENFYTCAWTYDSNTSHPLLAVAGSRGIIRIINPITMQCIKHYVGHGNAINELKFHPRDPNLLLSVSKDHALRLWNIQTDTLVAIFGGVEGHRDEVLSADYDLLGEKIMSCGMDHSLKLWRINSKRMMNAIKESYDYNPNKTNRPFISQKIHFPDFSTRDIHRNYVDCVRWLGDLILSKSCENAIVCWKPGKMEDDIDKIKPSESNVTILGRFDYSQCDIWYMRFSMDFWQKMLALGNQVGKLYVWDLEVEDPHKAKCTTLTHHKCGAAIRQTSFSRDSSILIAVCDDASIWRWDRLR
# Sequence of EZH1 (in the context of the PRC2 multiprotein complex) (Q15022 whole entry partner): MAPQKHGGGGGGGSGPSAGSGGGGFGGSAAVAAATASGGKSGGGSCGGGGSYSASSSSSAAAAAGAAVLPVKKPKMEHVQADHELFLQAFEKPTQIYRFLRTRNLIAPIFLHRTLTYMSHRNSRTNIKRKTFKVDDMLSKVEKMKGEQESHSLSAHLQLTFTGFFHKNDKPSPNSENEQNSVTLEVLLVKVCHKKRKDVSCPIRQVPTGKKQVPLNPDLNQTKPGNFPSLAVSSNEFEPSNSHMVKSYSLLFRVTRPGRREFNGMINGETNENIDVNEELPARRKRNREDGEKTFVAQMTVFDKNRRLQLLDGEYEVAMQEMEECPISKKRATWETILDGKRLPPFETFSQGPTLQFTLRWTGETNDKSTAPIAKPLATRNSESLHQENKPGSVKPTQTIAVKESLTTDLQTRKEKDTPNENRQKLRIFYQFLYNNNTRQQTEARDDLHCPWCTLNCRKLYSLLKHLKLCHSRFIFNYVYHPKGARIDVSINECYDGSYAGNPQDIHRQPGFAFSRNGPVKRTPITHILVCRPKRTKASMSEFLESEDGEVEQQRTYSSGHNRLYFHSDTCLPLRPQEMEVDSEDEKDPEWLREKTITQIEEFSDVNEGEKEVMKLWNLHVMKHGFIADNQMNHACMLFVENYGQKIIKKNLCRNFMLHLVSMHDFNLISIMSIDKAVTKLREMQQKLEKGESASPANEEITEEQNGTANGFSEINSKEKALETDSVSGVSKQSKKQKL
# Sequence of EZH1 (in the context of the PRC2 multiprotein complex) (Q09028 whole entry partner): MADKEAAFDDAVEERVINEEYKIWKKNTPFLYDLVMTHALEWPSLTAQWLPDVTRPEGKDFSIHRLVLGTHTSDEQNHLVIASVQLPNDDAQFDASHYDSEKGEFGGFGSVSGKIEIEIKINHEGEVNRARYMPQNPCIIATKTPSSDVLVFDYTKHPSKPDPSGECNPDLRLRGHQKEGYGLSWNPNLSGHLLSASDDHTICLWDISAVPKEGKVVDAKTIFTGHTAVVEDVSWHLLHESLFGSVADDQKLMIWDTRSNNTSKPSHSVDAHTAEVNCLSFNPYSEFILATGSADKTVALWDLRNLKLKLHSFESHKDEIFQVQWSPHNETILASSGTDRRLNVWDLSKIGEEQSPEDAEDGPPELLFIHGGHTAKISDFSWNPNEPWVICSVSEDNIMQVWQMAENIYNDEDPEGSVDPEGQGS
# Sequence of PRMT8 (Q9NR22 whole entry): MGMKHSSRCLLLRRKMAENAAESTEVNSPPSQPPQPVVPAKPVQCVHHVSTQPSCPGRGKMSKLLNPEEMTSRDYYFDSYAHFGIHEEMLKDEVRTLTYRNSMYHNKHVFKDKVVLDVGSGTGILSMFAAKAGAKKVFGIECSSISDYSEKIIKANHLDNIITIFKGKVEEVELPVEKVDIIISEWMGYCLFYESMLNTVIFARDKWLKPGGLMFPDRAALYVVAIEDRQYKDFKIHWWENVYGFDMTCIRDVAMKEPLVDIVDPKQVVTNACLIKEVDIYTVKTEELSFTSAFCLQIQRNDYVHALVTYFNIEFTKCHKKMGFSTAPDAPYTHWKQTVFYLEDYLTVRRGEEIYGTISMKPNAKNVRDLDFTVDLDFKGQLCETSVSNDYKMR
# Sequence of CARM1 (Q86X55 whole entry): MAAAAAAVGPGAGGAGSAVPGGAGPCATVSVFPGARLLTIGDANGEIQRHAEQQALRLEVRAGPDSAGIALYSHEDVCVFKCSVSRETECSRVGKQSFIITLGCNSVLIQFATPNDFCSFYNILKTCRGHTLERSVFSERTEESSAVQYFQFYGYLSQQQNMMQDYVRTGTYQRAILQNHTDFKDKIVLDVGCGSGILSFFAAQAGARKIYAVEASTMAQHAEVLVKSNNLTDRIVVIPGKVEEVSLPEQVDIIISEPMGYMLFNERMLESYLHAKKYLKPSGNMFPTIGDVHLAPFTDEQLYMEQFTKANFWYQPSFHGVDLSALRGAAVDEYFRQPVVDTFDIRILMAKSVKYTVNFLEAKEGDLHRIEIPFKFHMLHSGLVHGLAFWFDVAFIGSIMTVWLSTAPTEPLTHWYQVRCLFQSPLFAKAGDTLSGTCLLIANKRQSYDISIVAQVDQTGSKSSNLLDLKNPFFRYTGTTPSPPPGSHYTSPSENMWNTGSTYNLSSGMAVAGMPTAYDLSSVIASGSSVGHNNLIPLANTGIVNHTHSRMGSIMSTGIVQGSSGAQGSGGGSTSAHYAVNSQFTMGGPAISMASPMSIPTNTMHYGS
compound,measurement,setting,value
CC(C)N(CCCNC(=O)Nc1ccc(C(C)(C)C)cc1)C[C@H]1O[C@@H](n2ccc3c(N)ncnc32)[C@H](O)[C@@H]1O [EPZ004777],IC50,EHMT2,> 50 µM
same,solubility,Solubility,≤ 50 µM
same,solubility,"Solubility; 15% ethanol, 50% PEG300, 35% water",150 mg/mL
same,bone marrow cellularity,normal C57BL/6 mice,preserved
same,colony forming potential of bone marrow progenitors,normal C57BL/6 mice,did not find any significant differences
same,granulocyte/monocyte progenitors (GMP),normal C57BL/6 mice,not significantly affected
same,overt toxicity,normal C57BL/6 mice,no overt toxicity
same,tolerability,normal C57BL/6 mice,well tolerated
same,populations highly enriched for hematopoietic stem cells,normal C57BL/6 mice; versus control mice,did not reveal any difference
same,committed progenitors (Lin-Sca-1-c-Kit+),normal C57BL/6 mice; most apparent in CMP and MEP,statistically significant decrease
same,total white blood cell count,"normal C57BL/6 mice; neutrophils, monocytes, lymphocytes increased",statistically significant increase
same,time to full depletion of H3K79me2,[1]; 3 μM,4 to 5 days
same,global H3K79me2 levels,"[1]; 4 days, increasing concentrations",concentration-dependent reduction
same,G0/G1 phase cells,MV4-11 cells; 4 days,modest increase
same,S-phase cells,MV4-11 cells; 4 days,decrease
same,sub-G1 and Annexin-positive cells,MV4-11 cells; days 4 to 10,increase
same,number of viable cells,"MV4-11 cells (MLL-AF4); 3 μM, extended treatment",dramatically reduced
same,IC50,"MV4-11 cells (MLL-AF4); Homo sapiens, MV4-11, 336 h, read-out: IC50 inhibition of cell proliferation",170 nM
same,pump implant site reaction,[2]; 100 and 150 mg/ml groups,Local irritation at the pump implant site
same,body weight,"[2]; NSG mice, 14 days",no significant weight loss
same,tolerability,"[2]; NSG mice, 14 days",well tolerated
same,median survival,"[2]; pumps 50, 100 or 150 mg/ml, 14 days exposure, log-rank test",dose-dependent and statistically significant increase
same,IC50,[3],33 µM
same,IC50,[4],> 50 µM
same,IC50,RS4;11 cells (MLL-AF4),6.47 µM
same,IC50,[5],> 50 µM
same,survival of transformed progenitors,[6],unaffected
same,cell surface expression of CD14,[7],induced
same,H3K79me1 levels,[8],reduced
same,H4R3me2 (residue targeted by PRMT5),[8],no changes
same,methylation state of H3K9 and H3K4 (PRDM and SMYD family targets),[8],did not change
same,IC50,[9],36.6 µM
same,global H3K79me2 levels,[10],concentration-dependent reduction
same,pharmacokinetic properties,[11]; precluded conventional dosing,poor
same,average circulating plasma level,"[11]; pump 50 mg/ml, s.c. MV4-11 xenograft mice",0.55 ± 0.12 µM
same,average steady-state plasma concentration,[11]; pump 100 mg/ml,0.64 ± 0.48 µM
same,average steady-state plasma concentration,[11]; pump 150 mg/ml,0.84 ± 0.45 µM
same,IC50,[12],13.9 µM
same,IC50,KOPN-8 cells (MLL-ENL),620 nM
same,IC50,WHSC1,> 50 µM
same,H3K79 methylation,[13],inhibited H3K79 methylation
same,IC50,[14]; [23],~700 nM
same,IC50,[14]; [24],~700 nM
same,global H3K79me2 levels,[15],concentration-dependent reduction
same,number of viable cells,"MOLM-13 cells (MLL-AF9); 3 μM, extended treatment",dramatically reduced
same,IC50,"MOLM-13 cells (MLL-AF9); Homo sapiens, 336 h, read-out: IC50 inhibition of cell proliferation",720 nM
same,IC50,[16],> 50 µM
same,IC50,SETD7,> 50 µM
same,IC50,SEM cells (MLL-AF4),1720 nM
same,IC50,PRMT1,> 50 µM
same,IC50,[17]; [23],~700 nM
same,IC50,[17]; [24],~700 nM
same,IC50,[18],> 50 µM
same,IC50,CARM1,> 50 µM
same,growth of cells,"[19]; 3 μM, extended treatment",unaffected
same,IC50,"[19]; Homo sapiens, Jurkat, 336 h, read-out: IC50 inhibition of cell proliferation",> 50 µM
same,IC50,"PRMT5; IC50, ± 95% confidence interval",521 ± 137 nM
same,IC50,"PRMT5; biochemical IC50, only HMT other than DOT1L below this bound",< 50000 nM
same,time to maximal reduction of HOXA9 and MEIS1 transcripts,[20],6 to 8 days
same,time to significant decrease of HOXA9 and MEIS1 transcripts,[20],≤ 48 h
same,transcript levels of housekeeping gene TBP,[20]; 8 days,unaffected
same,H3K79 methylation,[21],inhibited H3K79 methylation
same,concentration strongly inhibiting proliferation,[22],≥ 3 µM
same,IC50,PRMT8,> 50 µM
